Among the test systems are DMS-114; DMS-273; LXFL 529; SNB-78; Hs-578T; DLD-1; HOP-18; XF498.
What all share (assay): NCI-60 cell line screen, 48 h

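A five-concentration, 48-hour dose response in 96-well plates underlies each endpoint, interpolated linearly between surrounding concentrations. GI50: concentration for 50% inhibition of growth.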 Activity calls are given as the source filed them. No stated cut-off is given here; in the data, active = GI50 up to about 1.1 µM and inactive = higher. Where a SMILES comes first, the peptide text is derived from it. [ ]: non-standard residue; d: D form. Hiv = CC(C)[C@H](O)C(=O)O Some results are limits rather than exact numbers.

Consider 56 compounds from ChEMBL document CHEMBL1201862, “PubChem BioAssay data set” (2004).

Take `COC(=O)C(C(=O)C(=O)Nc1ccc(C(F)(F)F)cc1[N+](=O)[O-])c1csc(-n2nc(-c3ccccc3)cc2-c2ccccc2)n1` (centres undefined): the GI50 with DMS-114, in the experiment with DMS-273, with LXFL 529 and in the experiment on SNB-78 was > 100 µM (inactive) in each case.
Regarding `CC(=O)C(C(=O)c1ccc(C)cc1)[C@H]1OC(C)(C)O[C@H]1[C@H]1COC(C)(C)O1` (some centres undefined), the GI50 in the experiment with Hs-578T is 3.08 µM (inactive).
The same measure, in the same setting: to `Cc1cc(C)c2nccc(NCCCN(C)C)c2c1[N+](=O)[O-]` belongs 34 µM (inactive); to `COc1ccc2c(c1)c1c3c(ccc4ncn2c43)N(CCO)CCN=1`, 0.274 µM (active).
Same read-out and setting: in the case of `O=[N+]([O-])c1nccn1CCCNCCCn1ccnc1[N+](=O)[O-]` it was > 100 µM (inactive).
The same measure, in the same setting: to `COc1ccc2c(c1)Cc1cc(/N=[N+](\[O-])c3ccc4c(c3)Cc3cc(OC)ccc3-4)ccc1-2` belongs 54 µM (inactive); to `CC(Nc1ncc2c(n1)-c1ccccc1OC2)C(=O)O` (centres undefined), 82.4 µM (inactive).
Consider `C=C(CC[C@@H](C)[C@H]1CC[C@H]2[C@@H]3C[C@@H](O)[C@H]4C[C@@H](O)CC[C@]4(CO)[C@H]3CC[C@]12C)C(C)C`, for which, in the experiment on Hs-578T, the GI50 was 6.18 µM (inactive).
The same measure, in the same setting: to `CCN(CC)CCOc1ccccc1/C=C/c1noc2ccccc12` belongs 15.7 µM (inactive).
Turning to `C[N+](C)(C)c1ncnc2c1ncn2C1CCCO1` (centres undefined), the GI50 with Hs-578T was > 100 µM (inactive).
Turning to `NC(Cc1ccccc1)C(=O)NC(Cc1ccccc1)NC(=O)C(Cc1c[nH]c2ccccc12)C(=O)O` (centres undefined), the GI50 in the experiment with Hs-578T is 37.7 µM (inactive).
Same read-out and setting: in the case of `CCOC(=O)c1sc2[n+](c1C)C(=O)/C(=C/c1ccc([N+](=O)[O-])cc1)S2` it was 23.2 µM (inactive); in that of `C/C=C\C(CC(=O)NCCc1c[nH]c2ccccc12)CC(=O)OC` (centres undefined), > 100 µM (inactive).
For `CN(C)/N=N/c1ccc(S(N)(=O)=O)cc1`, the GI50 in the experiment on DLD-1, in the experiment with DMS-114, in the experiment with DMS-273, with HOP-18 and in the experiment on XF498 was > 100 µM (inactive) throughout.
`O=[N+]([O-])c1cccc(S(=O)(=O)N/N=C/c2cc(I)cc([N+](=O)[O-])c2O)c1`: the GI50 was 42.5 µM (inactive) in the experiment on DLD-1; 21.6 µM (inactive) with DMS-114; 25.6 µM (inactive) in the experiment on DMS-273; 29.6 µM (inactive) with HOP-18; 21.5 µM (inactive) with LXFL 529; 22 µM (inactive) in the experiment on SNB-78.
For the compound `Clc1nc(Cl)c(-c2ccccc2)c(Cl)n1`, the GI50 with Hs-578T is 3.83 µM (inactive).
The same measure, in the same setting: in the case of `CCc1c2c([nH]c(=S)c1C#N)CCC2` it was > 100 µM (inactive).
The same measure, in the same setting: in the case of `CN(C)/C=N/S(=O)(=O)c1nn2c(C=O)c(-c3ccccc3)nc2s1` it was 19.5 µM (inactive); in that of `N#CC(C#N)=C/C=C/c1ccccc1[N+](=O)[O-]`, 3.48 µM (inactive); in that of `CC(C)[C@@H]1OC(=O)[C@@H](C)NC(=O)[C@@H]2CCCN2C1=O` (cyclo([Hiv]-Pro-[dA])), > 100 µM (inactive).
Same read-out and setting: in the case of `CC(C)(C)OC(=O)NCCCCC(N)C(N)=O` (centres undefined) it was 45.7 µM (inactive); in that of `C=CCN(c1cc(OC)c(NC(C)=O)cc1[N+](=O)[O-])S(C)(=O)=O`, > 100 µM (inactive); in that of `CC(C)/C(Cl)=N/OC(=O)Nc1cccc(C(F)(F)F)c1`, 9.55 µM (inactive).
On to `O=c1c(Cc2ccc(Cl)cc2)nnc2sc(-c3ccc(-c4ccc(F)c(Cl)c4)o3)nn12`, for which the GI50 in the experiment with Hs-578T is > 100 µM (inactive).
Regarding `Cc1ccc(NC(=O)c2cc(S(=O)(=O)Nc3n[nH]c(=O)n3-c3ccccc3)c(S)cc2Cl)cc1`, the GI50 in the experiment on Hs-578T was > 100 µM (inactive).
For the compound `Nc1nc2c(ncn2CCCC(c2ccccc2)P(=O)(O)O)c(=O)[nH]1` (centres undefined), the GI50 was > 100 µM (inactive) in the experiment on DLD-1; > 100 µM (inactive) in the experiment with DMS-114; > 100 µM (inactive) in the experiment with DMS-273; 62.4 µM (inactive) in the experiment on HOP-18; > 100 µM (inactive) with LXFL 529; > 100 µM (inactive) in the experiment on SNB-78.
Regarding `CC(=O)N1C(Nc2nccs2)CCN1c1ccccc1` (centres undefined), the GI50 in the experiment with Hs-578T is > 10 µM (inactive).
Same read-out and setting: to `COC(=O)n1c(=O)n(-c2ccccc2)c(=O)n1C(=O)OC` belongs > 100 µM (inactive); to `COc1cc(C2S/C(=C/c3ccccc3)C(=O)N2c2cccc(Cl)c2)cc(OC)c1OC` (centres undefined), 86.7 µM (inactive); to `COc1cccc(/C=C/c2cnc3ccccc3n2)c1OC`, 19.1 µM (inactive).
Same read-out and setting: to `O=C1CN(c2ccccc2)C(=O)CN1NCNN1CC(=O)N(c2ccccc2)CC1=O` belongs > 100 µM (inactive).
For `COc1nc2c(c(O)c(C)c(=O)n2OC2OCC(OC(C)=O)C(OC(C)=O)C2OC(C)=O)c(=O)n1C` (centres undefined), the GI50 in the experiment on DLD-1, in the experiment on DMS-114, in the experiment with DMS-273, in the experiment on LXFL 529, in the experiment on SNB-78 and in the experiment on XF498 was > 100 µM (inactive) in each case.
Take `C[Si](C)(c1ccccc1)C1CC(=O)CC(=O)C1`: the GI50 in the experiment with DLD-1, in the experiment on DMS-114, with DMS-273, with HOP-18, with LXFL 529 and with SNB-78 was > 100 µM (inactive) throughout. Also, the GI50 in the experiment with XF498 is > 100 µM (inactive).
As for `CC(C)(C)c1cc(Br)c(O)c(CN(Cc2cc(C(C)(C)C)cc(Br)c2O)C2CCCCC2)c1`, in the experiment with Hs-578T, the GI50 is 13.1 µM (inactive).
Same read-out and setting: to `CN(C)c1ncc(-c2c[nH]c3ccccc23)nc1-c1c[nH]c2ccccc12` belongs 2.78 µM (inactive).
Regarding `O=c1[nH]cc(F)c(=O)n1C1OC(CO)C(O)C1O` (centres undefined), the GI50 in the experiment on DLD-1, in the experiment on DMS-114, in the experiment with DMS-273, with HOP-18, in the experiment on LXFL 529 and in the experiment on SNB-78 was > 100 µM (inactive) each time. Moreover, the GI50 in the experiment on XF498 was > 100 µM (inactive).
As for `CC(=O)Oc1ccc(/C=C/C(=O)O[C@@H](C(=O)O)[C@@H](OC(=O)/C=C/c2ccc(OC(C)=O)c(OC(C)=O)c2)C(=O)O)cc1OC(C)=O`, the GI50 in the experiment on Hs-578T is > 100 µM (inactive).
For the compound `Cc1ncc([N+](=O)[O-])n1CCNC(=O)Cn1c([N+](=O)[O-])cnc1C`, the GI50 in the experiment on Hs-578T is > 100 µM (inactive).
On to `O=C(O)/C(Cl)=C(\Cl)Nc1cccc(C(F)(F)F)c1`, for which the GI50 in the experiment on DLD-1, with DMS-114, in the experiment on DMS-273, in the experiment on HOP-18, with LXFL 529 and in the experiment with SNB-78 was > 100 µM (inactive) each time. Moreover, the GI50 in the experiment with XF498 is > 100 µM (inactive).
`Nc1nc(Cl)cc(NCC2(CO)CC(CCCc3ccccc3)C2)n1` (centres undefined): in the experiment on Hs-578T, the GI50 was > 64.4 µM (inactive).
On the same count and under the same terms, in the case of `CCN1CN(c2ccccc2)C2(CCN(CC3COc4ccccc4O3)CC2)C1=O` (centres undefined) it was 20.7 µM (inactive).
For `Cc1ccccc1C(C#N)/C(=N/NC(=O)c1cc2ccccc2cc1O)C(=O)Nc1cccc(Cl)c1` (centres undefined), the GI50 was 18.4 µM (inactive) with DLD-1; 17.2 µM (inactive) with DMS-114; 6.75 µM (inactive) with DMS-273; 5.37 µM (inactive) in the experiment on HOP-18; 20.5 µM (inactive) with LXFL 529; 21.8 µM (inactive) with SNB-78. Moreover, the GI50 with XF498 is 14.8 µM (inactive).
`C[C@@H]1OC(=O)N2CCCC(=C3SCCCS3)C12` (some centres undefined): the GI50 was 25.1 µM (inactive) in the experiment with DMS-114; 97.7 µM (inactive) in the experiment with DMS-273; 52.5 µM (inactive) in the experiment with HOP-18; 44.8 µM (inactive) in the experiment on LXFL 529; > 100 µM (inactive) in the experiment with SNB-78; 36.6 µM (inactive) with XF498.
Consider `C[N+](C)(C)CC(=O)N/N=C(/C=C/c1ccccc1)CC1OC(=O)c2ccccc21` (centres undefined), for which the GI50 in the experiment on DLD-1, in the experiment on DMS-114, in the experiment on DMS-273, with HOP-18, in the experiment with LXFL 529 and with SNB-78 was > 100 µM (inactive) each time. For the same compound, in the experiment on XF498, the GI50 is > 100 µM (inactive).
Regarding `COC(=O)/C(C#N)=C(/NCCN)Nc1ccccc1`, the GI50 in the experiment on Hs-578T is > 100 µM (inactive).
On the same count and under the same terms, in the case of `N#CCC1(c2ccc(Cl)cc2)NC(=O)c2ccccc21` (centres undefined) it was > 100 µM (inactive).
For `COc1ccc(-c2nc3c(nc2-c2ccc(OC)cc2)N(C)S(=O)(=O)N=C3N)cc1`, the GI50 with DLD-1 was 33.3 µM (inactive); in the experiment with DMS-114, 17.3 µM (inactive); in the experiment on DMS-273, 41.6 µM (inactive); in the experiment with HOP-18, 47.2 µM (inactive); with LXFL 529, 27.3 µM (inactive).
Turning to `Clc1ncnc(Cl)c1Cl`, in the experiment with Hs-578T, the GI50 was > 100 µM (inactive).
Still for that read-out and setting: to `O=C(OCCN1CCCCC1)C(c1ccccc1)C1(O)CCSCC1` (centres undefined) belongs > 100 µM (inactive); to `CC(=O)Oc1ccc2oc(=O)cc(C)c2c1`, > 100 µM (inactive).
On to `C[n+]1c2ccccc2c(CNCC(=O)O)c2ccccc21`, for which the GI50 with DLD-1 was 0.659 µM (active); with DMS-114, 2.13 µM (inactive); in the experiment with DMS-273 it was 0.646 µM (active); in the experiment with HOP-18, 10.3 µM (inactive); in the experiment on LXFL 529, 1.07 µM (active); in the experiment on SNB-78, 11.3 µM (inactive). For the same compound, in the experiment with XF498, the GI50 is 2.14 µM (inactive).
Regarding `CCOc1ccc2c(c1)[n+]([O-])c(C(N)=O)c(N)[n+]2[O-]`, the GI50 in the experiment with DLD-1, in the experiment with DMS-114, with DMS-273, with HOP-18, with LXFL 529 and in the experiment on SNB-78 was > 100 µM (inactive) throughout. In the experiment with XF498, the GI50 was > 100 µM (inactive).
As to `c1ccc2c(c1)Sc1nccc3ccnc-2c13`, the GI50 in the experiment on Hs-578T is 14 µM (inactive).
Still for that read-out and setting: in the case of `O=C1c2cccc(O)c2C(=O)c2c(OC3OC(CO)C(O)C(O)C3O)cccc21` (centres undefined) it was 17.8 µM (inactive).
Turning to `O=C1C(N2C(=O)c3ccccc3C2=O)CN1C(COCc1ccccc1)c1ccc(OCc2ccccc2)cc1` (centres undefined), the GI50 in the experiment on DLD-1, with DMS-114, with DMS-273, in the experiment with LXFL 529, with SNB-78 and with XF498 was > 100 µM (inactive) throughout.
Consider `ClCCc1ccccc1CC1=NCCc2ccccc21`, for which the GI50 with Hs-578T was 28.5 µM (inactive).
